In patent publication US10131644B2, “Aryl sultam derivatives as RORc modulators” (Genentech, Inc., priority 2014, dated 2018):

biological target: T1, RORc (Homo sapiens, UniProt P51449); experiment: In vitro RORc ligand binding assay (25-[3H]hydroxycholesterol displacement); conditions: IC50, IC50 values for RORc; unit inferred
T1 sequence (P51449 269-508 limits assumed): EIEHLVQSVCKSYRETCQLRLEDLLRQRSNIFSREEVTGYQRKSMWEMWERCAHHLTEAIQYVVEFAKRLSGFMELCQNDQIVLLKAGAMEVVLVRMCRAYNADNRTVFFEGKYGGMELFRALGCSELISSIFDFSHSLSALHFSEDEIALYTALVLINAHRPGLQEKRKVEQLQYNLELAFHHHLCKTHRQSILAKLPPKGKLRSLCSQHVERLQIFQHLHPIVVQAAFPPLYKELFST

Going from CC(=O)N1CCC(O)(c2ccc(CN3[C@@H](C)CC[C@H](c4ccccc4)S3(=O)=O)c(F)c2)CC1 [Example 9, 1-{4-[3-Fluoro-4-((3S,6R)-3-methyl-1,1-dioxo-6-phenyl-[1,2]thiazinan-2-ylmethyl)-phenyl]-4-hydroxy-piperidin-1-yl}-ethanone] to C[C@H]1CC[C@H](c2ccccc2)S(=O)(=O)N1Cc1ccc(C2(C(N)=O)CCC3(CC2)OCCO3)cc1F [Example 22, 8-[3-Fluoro-4-((3S,6R)-3-methyl-1,1-dioxo-6-phenyl-[1,2]thiazinan-2-ylmethyl)-phenyl]-1,4-dioxa-spiro[4.5]decane-8-carboxylic acid amide], the IC50 falls from 130 nM to 30 nM (4.3-fold). The second is the more potent here.

Compared with C[C@H]1CC[C@H](c2ccccc2)S(=O)(=O)N1Cc1ccc([C@]2(C#N)CC[C@@H](n3cnnc3)CC2)cc1 [Example 10, 1-[4-((3S,6R)-3-Methyl-1,1-dioxo-6-phenyl-[1,2]thiazinan-2-ylmethyl)-phenyl]-4-[1,2,4]triazol-4-yl-cyclohexanecarbonitrile], C[C@H]1CC[C@H](c2ccccc2)S(=O)(=O)N1Cc1ccc([C@]2(CO)CC[C@H](n3cnnc3)CC2)cc1 [Example 14, {1-[4-((3S,6R)-3-Methyl-1,1-dioxo-6-phenyl-[1,2]thiazinan-2-ylmethyl)-phenyl]-4-[1,2,4]triazol-4-yl-cyclohexyl}-methanol] is 12-fold higher in IC50: 150 nM for the first, 1800 nM for the second. The first is the more potent here.

Compared with COC(=O)[C@]1(c2ccc(CN3[C@@H](C)CC[C@H](c4ccccc4)S3(=O)=O)cc2)CC[C@@H](n2cnnc2)CC1 [Example 12, 1-[4-((3S,6R)-3-Methyl-1,1-dioxo-6-phenyl-[1,2]thiazinan-2-ylmethyl)-phenyl]-4-[1,2,4]triazol-4-yl-cyclohexanecarboxylic acid methyl ester], COC(=O)[C@]1(c2ccc(CN3[C@@H](C)CC[C@H](c4ccccc4)S3(=O)=O)cc2)CC[C@H](n2cnnc2)CC1 [Example 17, 1-[4-((3S,6R)-3-Methyl-1,1-dioxo-6-phenyl-[1,2]thiazinan-2-ylmethyl)-phenyl]-4-[1,2,4]triazol-4-yl-cyclohexanecarboxylic acid methyl ester] is 1.8-fold lower in IC50: 630 nM for the first, 360 nM for the second. The second is the more potent here.

C[C@H]1CC[C@H](c2ccccc2)S(=O)(=O)N1Cc1ccc([C@]2(C(=O)O)CC[C@H](n3cnnc3)CC2)cc1 [Example 13, 1-[4-((3S,6R)-3-Methyl-1,1-dioxo-6-phenyl-[1,2]thiazinan-2-ylmethyl)-phenyl]-4-[1,2,4]triazol-4-yl-cyclohexane-carboxylic acid] and C[C@H]1CC[C@H](c2ccccc2)S(=O)(=O)N1Cc1ccc([C@]2(C(=O)N(C)C)CC[C@H](n3cnnc3)CC2)cc1 [Example 16, 1-[4-((3S,6R)-3-Methyl-1,1-dioxo-6-phenyl-[1,2]thiazinan-2-ylmethyl)-phenyl]-4-[1,2,4]triazol-4-yl-cyclohexanecarboxylic acid dimethylamide] are within 1.5-fold of each other in IC50: 2700 nM for the first, 2400 nM for the second.

Going from C[C@H]1CC[C@H](c2ccccc2)S(=O)(=O)N1Cc1ccc([C@]2(C#N)CC[C@@H](NC=O)CC2)cc1 [Example 19, N-{4-Cyano-4-[4-((3S,6R)-3-methyl-1,1-dioxo-6-phenyl-[1,2]thiazinan-2-ylmethyl)-phenyl]-cyclohexyl}-formamide] to C[C@H]1CC[C@H](c2ccccc2)S(=O)(=O)N1Cc1ccc([C@]2(C#N)CC[C@@H](n3cnnc3)CC2)cc1F [Example 20, 1-[3-Fluoro-4-((3S,6R)-3-methyl-1,1-dioxo-6-phenyl-[1,2]thiazinan-2-ylmethyl)-phenyl]-4-[1,2,4]triazol-4-yl-cyclohexanecarbonitrile], the IC50 falls from 310 nM to 110 nM (2.8-fold). The second is the more potent here.

Molecule C[C@H]1CC[C@H](c2ccccc2)S(=O)(=O)N1Cc1ccc(C2(C#N)CCC3(CC2)OCCO3)cc1F [Example 21, 8-[3-Fluoro-4-((3S,6R)-3-methyl-1,1-dioxo-6-phenyl-[1,2]thiazinan-2-ylmethyl)-phenyl]-1,4-dioxa-spiro[4.5]decane-8-carbonitrile] has an IC50 of 35 nM.
